Source: patent publication US12329738B2, “Urolithin A and a composition containing same for external use in inflammations of various etiologies” (WARSZAWSKI UNIWERSYTET MEDYCZNY, priority 2018, dated 2025)

What was measured:
TNF-alpha [1] = experiment: TNF-alpha production by THP-1 derived macrophages (ELISA); format: cell-based, human; details: 40 μM; LPS stimulation; FIG. 13
Experimental: (§1) Monocytes of the THP-1 line were cultured in RPMI 1640 medium supplemented with 10% FBS and 2 mM glutamine. For transformation of monocytes into macrophages, the cells were treated with 12.5 ng/mL PMA (phorbol 12-myristate 13-acetate) for 48 hours, then washed and incubated for 24 hours in a culture medium without PMA. After this time, urolithin A, urolithin B, iso-urolithin A and the corresponding glucuronides (GUA, GUB and GiUA) were added to the cells at a concentration of 40 μM. After 1 hour of incubation with the compounds, the cells were stimulated with LPS from Escherichia coli (10 ng/mL).
(§2) To assess the level of TNF-alpha production, the cells were incubated for 6 hours, to assess the expression of mRNA for TNF-alpha, the cells were incubated for 24 hours, to assess the effect on ERK1/2 phosphorylation, the cells were incubated for 35 minutes.
(§3) The level of TNF-alpha in the culture medium was determined using the immunochemical ELISA method (BD biosciences). Evaluation of the expression of mRNA for TNF-alpha was performed using real time PCR. After 24 hours of incubation, RNA was isolated using NucleoSpin RNA Clean-up (Macherey-Nagel). The amount and quality of isolated RNA was determined using 2100 Bioanalyzer (Agilent Technologies). The expression level of mRNA for TNF-α was determined using Brilliant II SYBR Green QPCR Kit and Aria Mx Real-Time PCR thermocycler (Agilent Technologies). The following were used as primers for TNF-alpha: forward: 5′-[…]-3′, reverse: 5′-[…]-3′. Beta-actin (ACTB) was used as the housekeeping gene; primer forward: 5′-[…]-3′, reverse: 5′-[…]-3′).
(§4) The obtained results of experiments on in vitro models were analyzed using the Statistica 13 program (StatSoft, Inc., Tulsa, OK, USA) and presented as mean values±SEM. Statistical significance was set at P≤0.05. The results with established normal distribution in the D'Agostin and Pearson test were prepared using analysis of variance (ANOVA). Parametric post-hoc analysis was performed using Dunnett's test.

[2] = system: Wistar rats (DNCB-induced atopic dermatitis); experiment: Peripheral blood morphology in DNCB-induced atopic dermatitis rat model; format: in vivo
Experimental: Wistar rats aged 5-6 weeks (at the start of the experiment) kept under standard conditions with free access to feed and water were used for the tests. The animals were divided into 5 groups, 8 individuals in each group. To prepare 2,4-dinitrochlorobenzene (DNCB) composition inducing inflammation, DNCB was dissolved in 70% ethanol to a final concentration of 1.5% (w/v). Therapeutic composition was an ointment based on white petrolatum with 0.2% or 1.0% urolithin A added. The control ointment was white petrolatum without addition of urolithin A.
The induction of chronic atopic dermatitis involved local 9-fold infiltration with 60 μl 1.5% 2,4-dinitrochlorobenzene (DNCB) on each (external and internal) surface of the right ear over 3 weeks (3 times a week). Negative control was the right ear of rats without induction inflammation.
Treatment of atopic dermatitis with 0.2% or 1.0% urolithin composition and white petrolatum (control) or 1.0% hydrocortisone composition (positive control) was started eight days after sensitization—one day before the fourth application of DNCB. Ointments with appropriate for given group drug added were applied in a total volume of about 20 μl to each ear surface one day before and 6 hours after each DNCB application (for a period of 3 weeks). The negative control group consisted of rats without induced inflammation and treated with white petrolatum in a regimen analogous to the composition of urolithin A or hydrocortisone.
2 mL blood samples were drawn into syringes (containing heparin as an anticoagulant) from the heart under general anesthesia (isoflurane) on day 32 of the experiment. The test was conducted using the DIATRON automated hematology analyzer. Peripheral blood analysis included the assessment of morphotic elements in blood: erythrocytes, leukocytes and thrombocytes and determination of the number and percentage of different types of leukocytes—WBC as well as values of erythrocyte indicators: hemoglobin (HGB), hematocrit (HCT), mean corpuscular volume (MCV), mean corpuscular hemoglobin (MCH) and mean corpuscular hemoglobin concentration (MCHC).
The experimental results obtained were analyzed using the Statistica 7.1 program (StatSoft, Inc., Tulsa, OK, USA) and presented as mean values±SE. Statistical significance was set at P≤0.05. The results with established normal distribution in the D'Agostin and Pearson test were prepared using two- or three-factor analysis of variance (ANOVA). Parametric post-hoc analysis for individual time points was performed using the Bonferroni test.

[3] = system: Wistar rats (DNCB-induced atopic dermatitis); experiment: Pruritus level (scratch reflexes) in DNCB-induced atopic dermatitis rat model; format: in vivo; details: topical ointment; urolithin A 0.2 and 1.0% (p<0.001), hydrocortisone 1% (p<0.01)
Experimental: Wistar rats aged 5-6 weeks (at the start of the experiment) kept under standard conditions with free access to feed and water were used for the tests. The animals were divided into 5 groups, 8 individuals in each group. To prepare 2,4-dinitrochlorobenzene (DNCB) composition inducing inflammation, DNCB was dissolved in 70% ethanol to a final concentration of 1.5% (w/v). Therapeutic composition was an ointment based on white petrolatum with 0.2% or 1.0% urolithin A added. The control ointment was white petrolatum without addition of urolithin A. The induction of chronic atopic dermatitis involved local 9-fold infiltration with 60 μl 1.5% 2,4-dinitrochlorobenzene (DNCB) on each (external and internal) surface of the right ear over 3 weeks (3 times a week). Negative control was the right ear of rats without induction inflammation. Treatment of atopic dermatitis with 0.2% or 1.0% urolithin composition and white petrolatum (control) or 1.0% hydrocortisone composition (positive control) was started eight days after sensitization—one day before the fourth application of DNCB. Ointments with appropriate for given group drug added were applied in a total volume of about 20 μl to each ear surface one day before and 6 hours after each DNCB application (for a period of 3 weeks). The negative control group consisted of rats without induced inflammation and treated with white petrolatum in a regimen analogous to the composition of urolithin A or hydrocortisone. Measurement of pruritus level (as measured by scratching reflexes) was evaluated as the total frequency of scratch reflexes during 10 minutes immediately after DNCB application on days 0, 4, 8, 12, 16, 20, 24, 28 and 32 of the experiment). Scratching was defined as a single or series of several reflexes of scratching with a paw directed at the site of DNCB application. The experimental results obtained were analyzed using the Statistica 7.1 program (StatSoft, Inc., Tulsa, OK, USA) and presented as mean values±SE. Statistical significance was set at P≤0.05. The results with established normal distribution in the D'Agostin and Pearson test were prepared using two- or three-factor analysis of variance (ANOVA). Parametric post-hoc analysis for individual time points was performed using the Bonferroni test.

[4] = system: Wistar rats (DNCB-induced atopic dermatitis); experiment: Ear thickness (edema) in DNCB-induced atopic dermatitis rat model; format: in vivo
Experimental: It is similar to the indications for use of hydrocortisone, which was used as a positive control in the study. Urolitin A was obtained by synthesis according to Bialonska et al. (Bialonska et al., 2009) or purchased from Sigma-Aldrich. The ointment containing urolithin A was prepared by emulsifying the weighed substance into a solid vehicle (white petrolatum) using an unguator. Wistar rats aged 5-6 weeks (at the start of the experiment) kept under standard conditions with free access to feed and water were used for the tests. The animals were divided into 5 groups, 8 individuals in each group. To prepare 2,4-dinitrochlorobenzene (DNCB) composition inducing inflammation, DNCB was dissolved in 70% ethanol to a final concentration of 1.5% (w/v). Therapeutic composition was an ointment based on white petrolatum with 0.2% or 1.0% urolithin A added. The control ointment was white petrolatum without addition of urolithin A. The induction of chronic atopic dermatitis involved local 9-fold infiltration with 60 μl 1.5% 2,4-dinitrochlorobenzene (DNCB) on each (external and internal) surface of the right ear over 3 weeks (3 times a week). Negative control was the right ear of rats without induction inflammation. Treatment of atopic dermatitis with 0.2% or 1.0% urolithin composition and white petrolatum (control) or 1.0% hydrocortisone composition (positive control) was started eight days after sensitization—one day before the fourth application of DNCB. Ointments with appropriate for given group drug added were applied in a total volume of about 20 μl to each ear surface one day before and 6 hours after each DNCB application (for a period of 3 weeks). The negative control group consisted of rats without induced inflammation and treated with white petrolatum in a regimen analogous to the composition of urolithin A or hydrocortisone. Ear thickness was assessed using an electronic mini caliper the day before inflammation was induced (day 0) and then on days 4 and 8 prior to treatment and on days 4, 8, 12, 16, […] of therapy with urolithin A composition (on days 12, 16, 20, 24, 28 and 32 after inflammation inducing, respectively). The experimental results obtained were analyzed using the Statistica 7.1 program (StatSoft, Inc., Tulsa, OK, USA) and presented as mean values±SE. Statistical significance was set at P≤0.05. The results with established normal distribution in the D'Agostin and Pearson test were prepared using two- or three-factor analysis of variance (ANOVA). Parametric post-hoc analysis for individual time points was performed using the Bonferroni test.

ERK1/2 = ERK1/2 phosphorylation in THP-1 derived macrophages (Western blotting); format: cell-based, human; details: 40 μM; LPS 10 ng/mL, 35 min; FIG. 15
Experimental: Monocytes of the THP-1 line were cultured in RPMI 1640 medium supplemented with 10% FBS and 2 mM glutamine. For transformation of monocytes into macrophages, the cells were treated with 12.5 ng/mL PMA (phorbol 12-myristate 13-acetate) for 48 hours, then washed and incubated for 24 hours in a culture medium without PMA. After this time, urolithin A, urolithin B, iso-urolithin A and the corresponding glucuronides (GUA, GUB and GiUA) were added to the cells at a concentration of 40 μM. After 1 hour of incubation with the compounds, the cells were stimulated with LPS from Escherichia coli (10 ng/mL). To assess the level of TNF-alpha production, the cells were incubated for 6 hours, to assess the expression of mRNA for TNF-alpha, the cells were incubated for 24 hours, to assess the effect on ERK1/2 phosphorylation, the cells were incubated for 35 minutes. […] The obtained results of experiments on in vitro models were analyzed using the Statistica 13 program (StatSoft, Inc., Tulsa, OK, USA) and presented as mean values±SEM. Statistical significance was set at P≤0.05. The results with established normal distribution in the D'Agostin and Pearson test were prepared using analysis of variance (ANOVA). Parametric post-hoc analysis was performed using Dunnett's test.

mRNA for TNF-alpha = experiment: TNF-alpha mRNA expression in THP-1 derived macrophages (real time PCR); format: cell-based, human; details: 40 μM; LPS stimulation; FIG. 14
Experimental: as §1, §2, §3, §4

TNF-alpha [5] = experiment: TNF-alpha production by macrophages from human peripheral blood monocytes (ELISA); format: cell-based; details: 40 μM; LPS 100 ng/mL, 24 h; FIG. 16
Experimental: Monocytes were isolated from peripheral human blood by a standard method using dextran sedimentation and Ficoll Hypaque gradient centrifugation. After isolation, monocytes were suspended in RPMI 1640 medium supplemented with L-glutamine, HEPES, streptomycin, amphotericin and gentamicin, and 20% autologous serum. Cell culture was carried out under these conditions for 7 days. […] After 24h, TNF-alpha level in the medium was determined using the immunochemical ELISA method (BD biosciences). The obtained results of experiments on in vitro models were analyzed using the Statistica 13 program (StatSoft, Inc., Tulsa, OK, USA) and presented as mean values±SEM. Statistical significance was set at P≤0.05. The results with established normal distribution in the D'Agostin and Pearson test were prepared using analysis of variance (ANOVA). Parametric post-hoc analysis was performed using Dunnett's test.

[6] = day 32, 1% hydrocortisone, urolithin A 0.2 and 1%

CC(=O)Oc1ccc2c(c1)oc(=O)c1ccccc12 [3-acetyl-urolithin B, reference compound]
TNF-alpha production by THP-1 derived macrophages (TNF-alpha [1]): did not show any activity

O=C(O)[C@H]1O[C@@H](Oc2ccc3c(c2)oc(=O)c2ccccc23)[C@H](O)[C@@H](O)[C@@H]1O [GUB, urolitin B 3-O-glucuronide]
TNF-alpha production by THP-1 derived macrophages (TNF-alpha [1]): did not show any activity

O=C(O)[C@H]1O[C@@H](Oc2ccc3c(c2)oc(=O)c2ccc(O)cc23)[C@H](O)[C@@H](O)[C@@H]1O [GiUA, Iso-urolithin A 3-O-glucuronide]
TNF-alpha production by THP-1 derived macrophages (TNF-alpha [1]): did not show any activity

C[C@]12CCC(=O)C=C1CC[C@@H]1[C@@H]2[C@@H](O)C[C@@]2(C)[C@H]1CC[C@]2(O)C(=O)CO [hydrocortisone]
WBC (leukocyte) level ([2]; 1% composition, day 32, vs petrolatum, hydrocortisone p<0.05, urolithin A p<0.01): significant reduction in WBC | Final WBC values compared to negative control (without atopic dermatitis) ([2]; 1% hydrocortisone, urolithin A 0.2 and 1%): remained at a higher level compared to negative control groups | MPV (fl), PDW (fl), PDWcv (%) ([2]; day 32): did not change | RBC, HGB, HCT, MCV ([2]; day 32): no changes | Thrombocrit (PCT %) ([2]; day 32, 1% composition, vs negative control, p<0.01): significantly higher values compared to the negative control group | Number of thrombocytes (PLT) ([2]; day 32, 1% composition, vs negative control, p<0.05): significantly higher values compared to the negative control group | Concentration of hemoglobin in erythrocytes (MCH and MCHC) ([2]; day 32, 1% hydrocortisone (p<0.05), urolithin A 0.2 and 1.0%): decrease in the concentration of hemoglobin in erythrocytes | RDW parameter level ([2]; day 32, 1% hydrocortisone, p<0.05): decrease in the RDW parameter level | Monocyte population [2, 6]: reducing the population of monocytes and neutrophils | Neutrophil population [2, 6]: reducing the population of monocytes and neutrophils | Lymphocyte level ([2]; day 32, 1% hydrocortisone, urolithin A 0.2 and 1%, vs petrolatum): no significant differences | Scratching rate (frequency of scratch reflexes) [3]: reduction in scratching rate | Time profile of anti-edema effect, urolithin A vs. hydrocortisone ([4]; initial period of therapy (up to 12 days)): greater therapeutic effectiveness | Ear edema (ear thickness) after local therapy ([4]; topical ointment in white petrolatum, urolithin A 0.2 and 1.0%, hydrocortisone 1%, urolithin A p<0.001, hydrocortisone p<0.01): reduced

O=c1oc2cc(O)ccc2c2cc(O)ccc12 [iso-urolithin A]
ERK1/2 kinase phosphorylation in THP-1 derived macrophages (ERK1/2): much less active | TNF-alpha mRNA expression in THP-1 derived macrophages (mRNA for TNF-alpha): stimulated mRNA expression | Inhibition of TNF-alpha production by macrophages from human peripheral blood monocytes (TNF-alpha [5]): significantly less active | TNF-alpha production by THP-1 derived macrophages (TNF-alpha [1]): stimulated the production of TNF-alpha

urolitin A 3-O-glucuronide and urolitin A 8-O-glucuronide [GUA]
TNF-alpha production by THP-1 derived macrophages (TNF-alpha [1]): did not show any activity
